Test results published in patent US11207312B2, “Metallo-beta-lactamase inhibitors and methods of use thereof” (priority 2017, dated 2021).

Key:
[1] = target: VIM-2 (Escherichia coli, UniProt Q5U7L7); assay: biochemical; conditions: CCF2-FA fluorescence assay; read-out: VIM2 IC50
[2] = system: P. aeruginosa MB9798 (efflux+, IMP-1 plasmid); conditions: for MB9798 MITC95 P. aeruginosa uM Efflux WT: efflux + (MB9798) strain, imipenem at 2 μg/mL, in the presence of a class A, C, D serine β-lactamase inhibitor closely related to relebactam; for Efflux ratio: fold difference between efflux+ (MB9798) and efflux− (MB9799) strains
In short: (§1)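 PAO1-derived isogenic pair (oprD+, inducible AmpC), efflux+ MB5919 or efflux− MB5890 parent, carrying an electroporated IMP-1 plasmid from a clinical isolate. Microbroth MIC with fixed imipenem and/or ceftazidime (usually CLSI breakpoint) plus fixed class A/C inhibitor; MBL inhibitor serially titrated, concentration restoring susceptibility recorded.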

[3] = system: Escherichia coli expressing NDM-1 (CLB30016); assay type: cell-based; conditions: with imipenem 1 μg/ml; 95% inhibition of bacterial growth
In short: (§2)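 Colonies from sheep-blood agar plates are resuspended in saline, then diluted 1:100 in 1.1× CAMHB. Bacteria receive imipenem (1 μg/ml) and test compound, then incubate 22–24 h at 35 °C. Potentiation is reported as MITC95 from absorbance.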

[4] = system: Klebsiella pneumoniae expressing VIM-1 (IHMA599644); assay type: cell-based; conditions: with imipenem 1 μg/ml; 95% inhibition of bacterial growth
In short: as §2

[5] = system: Serratia marcescens expressing IMP-1 (CL5741); assay type: cell-based; conditions: with imipenem 1 μg/ml; 95% inhibition of bacterial growth
In short: as §2

[6] = system: P. aeruginosa MB9799 (efflux-, IMP-1 plasmid); assay type: cell-based, Pseudomonas aeruginosa; conditions: efflux − (MB9799) strain; imipenem at 2 μg/mL; in the presence of a class A, C, D serine β-lactamase inhibitor closely related to relebactam
In short: as §1

[7] = target: VIM-1 (Pseudomonas aeruginosa (strain ATCC 15692 / DSM 22644 / CIP 104116 / JCM 14847 / LMG 12228 / 1C / PRS 101 / PAO1), UniProt A0A0F7KYQ8); assay: biochemical; conditions: CCF2-FA fluorescence assay, 2 hours at 25° C.; read-out: VIM1 IC50
In short: (§3)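 IC50s come from 4-parameter fits of inhibition versus inhibitor concentration, tested from 20 μM down to 0.00063 μM. Enzyme, CCF2-FA (1.25 μM) and inhibitor react 2 h at 25° C, pH 7, with 10 μM ZnSO4 and 0.005% Tween-20.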

[8] = target: IMP-1 (Serratia marcescens, UniProt P52699); assay: biochemical; conditions: CCF2-FA fluorescence assay, 2 hours at 25° C.; read-out: IMP1 IC50
Chain of IMP-1 (P52699 whole entry, looked up, species assumed): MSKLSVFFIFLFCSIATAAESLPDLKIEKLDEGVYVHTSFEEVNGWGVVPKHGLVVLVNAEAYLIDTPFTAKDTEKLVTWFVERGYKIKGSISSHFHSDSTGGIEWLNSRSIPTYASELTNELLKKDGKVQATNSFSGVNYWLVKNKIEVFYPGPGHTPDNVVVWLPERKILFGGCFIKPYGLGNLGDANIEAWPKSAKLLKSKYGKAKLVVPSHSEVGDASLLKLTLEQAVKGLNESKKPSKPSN
In short: as §3

[9] = target: NDM-1 (Klebsiella pneumoniae, UniProt C7C422); assay: biochemical; assay type: biochemical; conditions: CCF2-FA fluorescence assay, 2 hours at 25° C.
Chain of NDM-1 (C7C422 whole entry, looked up, species assumed): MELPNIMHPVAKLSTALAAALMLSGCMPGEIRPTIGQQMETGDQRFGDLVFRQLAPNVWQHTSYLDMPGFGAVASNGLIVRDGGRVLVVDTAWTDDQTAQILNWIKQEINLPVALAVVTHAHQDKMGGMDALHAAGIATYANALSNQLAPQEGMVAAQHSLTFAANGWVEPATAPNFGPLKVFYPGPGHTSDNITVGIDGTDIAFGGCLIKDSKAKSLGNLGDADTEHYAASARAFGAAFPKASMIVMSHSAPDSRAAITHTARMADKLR
In short: as §3

SMILES	IC50 [1]	MB9798 MITC95 P. aeruginosa uM Efflux WT [2]	Efflux ratio [2]	CLB30016 E. coli MITC95 NDM [3]	IHMA599644 K. pneumoniae MITC95 VIM [4]	CL5741 S. marcescens MITC95 IMP [5]	MB9799 MITC95 P. aeruginosa uM Efflux Mutant [6]	IC50 [7]	IC50 [8]	IC50 [9]
NC[C@@H](O)CNS(=O)(=O)c1ccc(N2CCN(CCCO)CC2)c(-c2nnn[nH]2)c1S(N)(=O)=O [Example 40, (R)-N1-(3-amino-2-hydroxypropyl)-4-(4-(3-hydroxypropyl)piperazin-1-yl)-3-(1H-tetrazol-5-yl)benzene-1,2-disulfonamide]	7.36 nM	1.56 µM	2.00	0.05 µM	0.78 µM	0.10 µM	0.78 µM	5.87 nM	3.56 nM	3.07 nM
NCCNS(=O)(=O)c1ccc(N2CCC(CO)CC2)c(-c2nnn[nH]2)c1S(N)(=O)=O [Example 43, N1-(2-aminoethyl)-4-(4-(hydroxymethyl)piperidin-1-yl)-3-(1H-tetrazol-5-yl)benzene-1,2-disulfonamide]	0.61 nM	1.56 µM	1.00	1.56 µM	6.25 µM	1.56 µM	1.56 µM	0.19 nM	0.58 nM	0.51 nM
NC[C@@H](O)CNS(=O)(=O)c1ccc(N2CCN3CCOCC3C2)c(-c2nn[nH]n2)c1S(N)(=O)=O (stereo partly drawn) [Example 129, N1-((R)-3-amino-2-hydroxypropyl)-4-(hexahydropyrazino [2,1-c][1,4]oxazin-8(1H)-yl)-3-(2H-tetrazol-5-yl)benzene-1,2-disulfonamide 2,2,2-trifluoroacetate]	6.44 nM	6.25 µM	2.00	6.25 µM	12.50 µM	3.13 µM	3.13 µM	3.53 nM	4.72 nM	2.7 nM
NC(=O)[C@@H]1CN(c2ccc(S(=O)(=O)N[C@@H]3CCNC3)c(S(N)(=O)=O)c2-c2nn[nH]n2)CCN1 [Example 196, (S)-4-(4-(N—((R)-pyrrolidin-3-yl)sulfamoyl)-3-sulfamoyl-2-(2H-tetrazol-5-yl)phenyl)piperazine-2-carboxamide]	1.7 nM	2.34 µM	3.00	0.29 µM	1.17 µM	0.20 µM	0.78 µM	0.44 nM	3.26 nM	0.72 nM
NC[C@@H](O)CNS(=O)(=O)c1ccc(N2CCC(N)CC2)c(-c2nn[nH]n2)c1S(N)(=O)=O [Example 194, (R)-N1-(3-amino-2-hydroxypropyl)-4-(4-aminopiperidin-1-yl)-3-(2H-tetrazol-5-yl)benzene-1,2-disulfonamide]	14.9 nM	0.78 µM	1.00	0.39 µM	0.78 µM	0.20 µM	0.78 µM	0.17 nM	16 nM	26.5 nM
NC[C@@H](O)CNS(=O)(=O)c1ccc(N2CCC(c3ncc[nH]3)CC2)c(-c2nn[nH]n2)c1S(N)(=O)=O [Example 201, (R)-4-(4-(1H-imidazol-2-yl)piperidin-1-yl)-N1-(3-amino-2-hydroxypropyl)-3-(2H-tetrazol-5-yl)benzene-1,2-disulfonamide]	0.64 nM	1.56 µM	2.00	0.39 µM	1.56 µM	0.78 µM	0.78 µM	0.26 nM	0.77 nM	1.83 nM
CC1(CN)CCN(c2ccc(S(=O)(=O)NC[C@H](O)CN)c(S(N)(=O)=O)c2-c2nn[nH]n2)CC1 [Example 138, (R)-N1-(3-amino-2-hydroxypropyl)-4-(4-(aminomethyl)-4-methylpiperidin-1-yl)-3-(2H-tetrazol-5-yl)benzene-1,2-disulfonamide]	10.3 nM	1.56 µM	2.00	1.56 µM	1.56 µM	1.56 µM	0.78 µM	0.71 nM	6.91 nM	2.47 nM
NCCNS(=O)(=O)c1ccc(N2CCC(O)(CN)CC2)c(-c2nn[nH]n2)c1S(N)(=O)=O [Example 17]	64.6 nM	1.56 µM	2.00	0.78 µM	1.56 µM	0.78 µM	0.78 µM	15.1 nM	26.9 nM	17 nM
NS(=O)(=O)c1c(S(=O)(=O)N[C@@H]2CCNC2)ccc(N2CCCC(O)C2=O)c1-c1nn[nH]n1 (stereo partly drawn) [Example 148, 4-(3-hydroxy-2-oxopiperidin-1-yl)-N1-((R)-pyrrolidin-3-yl)-3-(2H-tetrazol-5-yl)benzene-1,2-disulfonamide]	1.5 nM	3.13 µM	2.00	0.39 µM	3.13 µM	1.56 µM	1.56 µM	0.35 nM	28.1 nM	0.76 nM
NS(=O)(=O)c1c(S(=O)(=O)N[C@@H]2CCNC2)ccc(N2CC3(CCNCC3)C2)c1-c1nnn[nH]1 [Example 113, 4-(2,7-diazaspiro[3.5]non-2-yl)-N1-[(3R)-pyrrolidin-3-yl]-3-(1H-tetrazol-5-yl)benzene-1,2-disulfonamide]	119 nM	6.25 µM	8.00	0.78 µM	1.56 µM	1.56 µM	0.78 µM	0.81 nM	33.1 nM	13.7 nM
NS(=O)(=O)c1c(S(=O)(=O)N[C@@H]2CCNC2)ccc(N2CCCC(=O)C2=O)c1-c1nn[nH]n1 [Example 151, (R)-4-(2,3-dioxopiperidin-1-yl)-N1-(pyrrolidin-3-yl)-3-(2H-tetrazol-5-yl) benzene-1,2-disulfonamide]	5.92 nM	12.50 µM	4.00	0.39 µM	6.25 µM	1.56 µM	3.13 µM	1.15 nM	6.7 nM	0.53 nM
NC[C@@H](O)CNS(=O)(=O)c1ccc(NC2CCC(N)C2)c(-c2nn[nH]n2)c1S(N)(=O)=O (stereo partly drawn) [compound 184, N1-((R)-3-amino-2-hydroxypropyl)-4-((3-aminocyclopentyl)amino)-3-(2H-tetrazol-5-yl)benzene-1,2-disulfonamide]	44.4 nM	6.25 µM	2.00	0.78 µM	1.56 µM	1.56 µM	3.13 µM	4.61 nM	39.4 nM	19.4 nM
NC[C@@H](O)CNS(=O)(=O)c1ccc(N2CCC(CNCCO)CC2)c(-c2nn[nH]n2)c1S(N)(=O)=O [Example 123, (R)-N1-(3-amino-2-hydroxypropyl)-4-(4-(((2-hydroxyethyl)amino)methyl)piperidin-1-yl)-3-(2H-tetrazol-5-yl)benzene-1,2-disulfonamide]	7.51 nM	1.56 µM	2.00	0.39 µM	1.56 µM	0.39 µM	0.78 µM	0.25 nM	6.18 nM	10.8 nM
